Measured values from patent publication US20160296628A1, “NANOPARTICLE DELIVERY SYSTEMS FOR CYTOLYTIC PEPTIDE PRODRUGS” (Washington University, priority 2015, published 2016).

Tests used:
red blood cells = test: Hemolysis of red blood cells; assay type: cell-based, New Zealand white rabbits
Procedure: For hemolysis measurements, citrated whole blood was collected from New Zealand white rabbits and separated by centrifugation at 2000 rpm for 10 minutes. Red blood cells were washed five times with Dulbecco's phosphate buffered saline and stored at 4° C. until use. In each assay, the peptide of interest was added to 1×10^7 red blood cells in PBS and incubated at 37° C. for one hour. Afterwards, intact red blood cells were pelleted by centrifugation at 2000 rpm for 5 minutes and absorbance of the supernatant at 450 nm was measured using a Bio-Rad Model 550 plate reader (Bio-Rad Laboratories, Hercules, Calif.) with reference wavelength 630 nm To determine percent lysis, absorbance readings were normalized to lysis with 0.1% Triton™ X-100.
To assess the impact of proteolytic cleavage on conjugate cytotoxicity and hemolytic activity, we repeated these experiments following cleavage of the conjugate by matrix metalloproteinase-9 (MMP-9). Recombinant MMP-9 (R&D Systems, Minneapolis, Minn.) was activated by incubation with 1 mM 4-aminophenylmercuric acetate (APMA; Sigma-Aldrich, St. Louis, Mo.) at 37° C. for 2 hours. Free APMA was removed by dialysis against TCNBZ buffer (150 mM NaCl, 50 mM Tris, 10 mM CaCl2, 10 μM ZnCl2, 0.05% (w/v) Brij-35, pH 7.75) for 2 hours using a Slide-A-Lyzer MINI Dialysis Device, 2K MWCO (Thermo Scientific, Waltham, Mass.) with a dialysate change at 1 hour. […]

B16F10 melanoma cells = test: XTT cytotoxicity assay, B16F10 melanoma cells; assay type: cell-based; details: B16F10, MMP-9 added to culture media
RAW 264.7 macrophages = test: XTT cytotoxicity assay, RAW 264.7 macrophages; assay type: cell-based; details: 3 hours at 37° C., FIGS. 1A-1C
Procedure: (§1) The conjugate was compared to melittin and to melittin coupled only to linker in order to determine toxicity to endothelial cells and macrophages, as well as hemolysis. For assessment of cytotoxicity, 2F2B endothelial cells (CRL-2168; American Type Culture Collection, Manassas, Va.) or RAW 264.7 macrophages (TIB-71; American Type Culture Collection, Manassas, Va.) were plated in a 96-well plate at a concentration of 15,000 cells/well and allowed to attach overnight. The peptide of interest was then added and incubated with the cells for 3 hours at 37° C. Following this incubation, the agent of interest was removed, cells were washed with phosphate-buffered saline, and cell viability was determined by XTT assay (Biotium, Hayward, Calif.). This assay measures the ability of cellular oxidoreductases to reduce the XTT reagent, resulting in a colored product. Briefly, cells were incubated with the activated XTT reagent for 3 hours at 37° C. with shaking at 200 rpm. The absorbance of each well at 450 nm was then measured using a Bio-Rad Model 550 plate reader (Bio-Rad Laboratories, Hercules, Calif.) with reference wavelength 630 nm.
(§2) To assess the impact of proteolytic cleavage on conjugate cytotoxicity and hemolytic activity, we repeated these experiments following cleavage of the conjugate by matrix metalloproteinase-9 (MMP-9). […]

2F2B endothelial cells = test: XTT cytotoxicity assay, 2F2B endothelial cells; assay type: cell-based; details: 3 hours at 37° C., FIGS. 1A-1C
Procedure: as §1, §2

[1] = Peptide loading onto perfluorocarbon nanoparticles; assay type: physicochemical; details: 1 mM peptide in phosphate-buffered saline, 4° C., 1 hour
Procedure: Conjugate-loaded nanoparticles were formulated by mixing known amounts of conjugate to non-targeted perfluorocarbon nanoparticles prepared in Example 1A and compared to melittin loading. Both melittin and the conjugate were produced by solid-phase peptide synthesis (melittin: GenScript, Piscataway, N.J.; conjugate: American Peptide Company, Sunnyvale, Calif.). Perfluorocarbon nanoparticles were incubated with 1 mM melittin or conjugate in phosphate-buffered saline at 4° C. for 1 hour. Nanoparticles were then isolated by centrifugation at 5,000 rpm for 15 minutes. The supernatant was removed and nanoparticles were washed three times with phosphate-buffered saline to remove free peptide.

| Compound | hemolytic activity after cleavage by MMP-9 (red blood cells; conjugate 200 μM cleaved with 20 nM MMP-9, 3 hours at 37° C.) | change of cytolytic / hemolytic activity relative to melittin (red blood cells; rabbit red blood cells in PBS, 37° C., one hour, FIGS. 1A-1C) | cytotoxicity to melanoma cells (B16F10 melanoma cells) | change of cytolytic activity / cytotoxicity relative to melittin (RAW 264.7 macrophages) | change of cytolytic activity / cytotoxicity relative to melittin (2F2B endothelial cells) | loading, peptides per nanoparticle [1] |
| --- | --- | --- | --- | --- | --- | --- |
| CC[C@H](C)[C@H](NC(=O)CNC(=O)[C@H](CCC(N)=O)NC(=O)CNC(=O)[C@H](C)NC(=O)[C@@H](NC(=O)CNC(=O)[C@H](CCC(N)=O)NC(=O)[C@@H]1CCCN1C(=O)CNC(=O)[C@H](C)NC(=O)[C@H](CCC(=O)O)NC(=O)[C@@H]1CCCN1C(=O)[C@H](CC(=O)O)NC(=O)[C@H](C)NC(=O)[C@H](CCC(=O)O)NC(=O)[C@H](C)NC(=O)[C@H](CC(=O)O)NC(=O)[C@H](C)NC(=O)[C@H](CCC(=O)O)NC(=O)[C@H](C)NC(=O)[C@H](CCC(=O)O)NC(=O)[C@@H]1CCCN1C(=O)[C@H](CCC(=O)O)NC(=O)[C@@H]1CCCN1C(=O)[C@H](C)NC(=O)[C@@H]1CCCN1C(=O)[C@H](CCC(=O)O)NC(=O)[C@@H]1CCCN1)[C@@H](C)CC)C(=O)NCC(=O)N[C@@H](C)C(=O)N[C@H](C(=O)N[C@@H](CC(C)C)C(=O)N[C@@H](CCCCN)C(=O)N[C@H](C(=O)N[C@@H](CC(C)C)C(=O)N[C@H](C(=O)N[C@H](C(=O)NCC(=O)N[C@@H](CC(C)C)C(=O)N1CCC[C@H]1C(=O)N[C@@H](C)C(=O)N[C@@H](CC(C)C)C(=O)N[C@H](C(=O)N[C@@H](CO)C(=O)N[C@@H](Cc1c[nH]c2ccccc12)C(=O)N[C@H](C(=O)N[C@@H](CCCCN)C(=O)N[C@@H](CCCNC(=N)N)C(=O)N[C@@H](CCCCN)C(=O)N[C@@H](CCCNC(=N)N)C(=O)N[C@@H](CCC(N)=O)C(=O)N[C@@H](CCC(N)=O)C(N)=O)[C@@H](C)CC)[C@@H](C)CC)[C@@H](C)O)[C@@H](C)O)C(C)C)C(C)C [Pro-P2] | restored | reduced melittin cytotoxicity and hemolytic activity by at least two orders of magnitude | substantially cytotoxic | reduced melittin cytotoxicity and hemolytic activity by at least two orders of magnitude | reduced melittin cytotoxicity and hemolytic activity by at least two orders of magnitude | – |
| CC[C@H](C)[C@H](NC(=O)CN)C(=O)NCC(=O)N[C@@H](C)C(=O)N[C@H](C(=O)N[C@@H](CC(C)C)C(=O)N[C@@H](CCCCN)C(=O)N[C@H](C(=O)N[C@@H](CC(C)C)C(=O)N[C@H](C(=O)N[C@H](C(=O)NCC(=O)N[C@@H](CC(C)C)C(=O)N1CCC[C@H]1C(=O)N[C@@H](C)C(=O)N[C@@H](CC(C)C)C(=O)N[C@H](C(=O)N[C@@H](CO)C(=O)N[C@@H](Cc1c[nH]c2ccccc12)C(=O)N[C@H](C(=O)N[C@@H](CCCCN)C(=O)N[C@@H](CCCNC(=N)N)C(=O)N[C@@H](CCCCN)C(=O)N[C@@H](CCCNC(=N)N)C(=O)N[C@@H](CCC(N)=O)C(=O)N[C@@H](CCC(N)=O)C(N)=O)[C@@H](C)CC)[C@@H](C)CC)[C@@H](C)O)[C@@H](C)O)C(C)C)C(C)C [melittin] | – | – | – | – | – | approximately 16,000 peptides per nanoparticle |
